B1: HilD (natural protein)
chain: MENVTFVSNSHQRPAADNLQKLKSLLTNTRQQIKSQTQQVTIKNLYVSSFTLVCFRSGKLTISNNHDTIYCDEPGMLVLKKEQVVNVTLEEVNGHMDFDILEIPTQRLGALYALIPNEQQTKMAVPTEKAQKIFYTPDFPARREVFEHLKTAFSCTKDTSKGCSNCNNKSCIENEELIPYFLLFLLTAFLRLPESYEIILSSAQITLKERVYNIISSSPSRQWKLTDVADHIFMSTSTLKRKLAEEGTSFSDIYLSARMNQAAKLLRIGNHNVNAVALKCGYDSTSYFIQCFKKYFKTTPSTFIKMANH
notes: also called HilDWT; recombinant HilD; source: E. coli C41(DE3), purified (Ni-NTA, SUMO protease cleavage, second Ni-NTA, SEC)

How the values were obtained:
HilD [1] = target: T1, HilD (Salmonella typhimurium, UniProt E1WAC0); experiment: Whole-cell HilD activity assay (PhilA-sfGFP activation); assay type: cell-based, S. Typhimurium; conditions: for activity in PhilA activation assay, in words: CDCA: highest tested concentration 100 μM
T1 construct: endogenous in cells; host or cells: S. Typhimurium SL1344 strain PhilA-sfGFP
Protocol: A whole-cell reporter gene assay was used to quantify HilD transcriptional activity. Strain PhilA-sfGFP and the isogenic ΔhilD PhilA-sfGFP were used for this purpose. Cultures were performed in 1 ml of LB supplemented with 0.3 M NaCl. Compounds at different concentrations or 1% (v/v) DMSO were added to the corresponding tubes. Cultures were incubated at 37°C and 180 rpm for 5 hours. Cells were pelleted, resuspended in 100 μl of PBS, and then transferred into a 96-well black clear-bottom plate (Thermo Fisher Scientific, USA). Fluorescence intensity was measured with a Tecan Spark microplate reader with an excitation wavelength of 485 nm and an emission wavelength of 510 nm. Dose-response curves and IC50 values were calculated using CDD Vault.

HeLa cells = experiment: Cytotoxicity, CellTox Green Cytotoxicity Assay, HeLa; assay type: cell-based; conditions: exposure time 18 h
Protocol: In vitro toxicity of compound C26 was assessed in HeLa cells (ATCC CCL-2) using the ApoTox-Glo Triplex Assay and in macrophages RAW 264.7-LgBiT using the CellTox Green Cytotoxicity Assay (Promega, USA) according to the manufacturer’s instructions. The screening of in vitro toxicity of the compound analogs was performed with the CellTox Green Cytotoxicity Assay (Promega, USA) according to the manufacturer’s instructions. Cells (10^4 cells per well) were seeded into a 96-well plate and incubated for 24 hours at 37°C, 5% (v/v) CO2. Cells were then treated with the compound at different concentrations or 1% (v/v) DMSO in Dulbecco’s modified Eagle’s medium (DMEM) without phenol red at the desired exposure time. Fluorescence intensity was measured with a TECAN Spark microplate reader. Cytotoxicity [relative fluorescence units (RFU)] and viability (RFU) values were plotted to calculate the TC50 using GraphPad Prism 10.1.1.
Compound concentration (µM) […]
in vitro cytotoxicity of C26 and analogs. Cytotoxicity assessed with CellTox™ Green Cytotoxicity Assay with an exposure time of 18 h. N = 3 biological replicates. Data were plotted and TC50 values were generated with GraphPad Prism 10.1.1.
(1 picture or pasted object on this page, not shown here)

HilD [2] = target: T2, HilD (Salmonella typhimurium, UniProt P0CL08); experiment: nanoDSF thermal stability, HilD; assay type: binding, S. Typhimurium
T2 construct: His6-SUMO (N, cleaved yes); made in house; host or cells: E. coli C41(DE3)
Protocol: Thermal stability of proteins was determined using nanoDSF, with runs performed on a Prometheus NT.48 (NanoTemper Technologies). A twofold serial dilution series of C26 was prepared in DMSO. C26 was added to HilD or HilC (5 μM) in SEC buffer, giving a final DMSO concentration of 1% (v/v). Samples were incubated for >20 min at r.t. and centrifuged for 2 min prior to loading of standard capillaries (no. PR-C002). Samples were heated from 20° to 80°C with a temperature gradient of 0.5°C min^−1. Melting temperatures were calculated from changes in the fluorescence ratio (350/330 nm), using PR.Stability Analysis v1.0.3 and a temperature range of 40° to 70°C for curve fitting. Data analysis was performed using Prism 8.4 (GraphPad). The change in HilD melting temperature, Tm, was fitted as a function of ligand concentration, using Eqs. 1 and 2 to yield apparent affinity (Kd,app) values Tm{[L]0}=Tm,lower+(Tm,upper−Tm,lower)*(1−α{[L]0}) (1) α{[L]0}=[P]t−Kd−[L]t+{[P]t+[L]t+Kd,app}^2−{4[P]t[L]t}/2[P]t (2) where [P]t and [L]t are the total protein and ligand concentrations, respectively.

HilD dimer = target: T3, HilD dimer (Salmonella typhimurium, UniProt P0CL08); experiment: BS3 cross-linking of HilD; assay type: biochemical, S. Typhimurium; conditions: oleic acid 50 and 100 μM; C26 up to 200 μM
T3 construct: His6-SUMO (N, cleaved yes); made in house; host or cells: E. coli C41(DE3)
Protocol: BS^3 cross-linking of HilD was performed as previously described ([39]). In summary, HilD (10 μM) was first incubated with C26 or oleic acid in SEC buffer for 20 min at r.t., with a final DMSO concentration of 1% (v/v). HilD was then cross-linked by incubation with 0.2 mM BS^3 (Thermo Fisher Scientific, Pierce, A39266) at r.t. for 1 hour, before the reaction was quenched by the addition of 50 mM Tris (pH 7.5). Samples were analyzed using SDS-PAGE and visualized by silver staining.

HilD-HilE heterodimer = HilD-HilE heterodimer (Salmonella typhimurium, UniProt P0CL08); experiment: MST dimerization assay HilD-HilE; assay type: binding, S. Typhimurium; conditions: 100 μM compound
Protocol: MST measurements for the binding of HilD to HilE were performed as previously described ([39]). In summary, enhanced yellow fluorescent protein (EYFP)-HilD (100 nM) was incubated with 100 μM either oleic acid or C26 [with a final concentration of 1% (v/v) DMSO] for 10 min at r.t. (22° to 25°C) and subsequently mixed 1:1 with varying concentrations of HilE. Samples were incubated together for 10 min at r.t., centrifuged for 5 min, and loaded to standard capillaries (NanoTemper Technologies GmbH, no. MO-K022). MST runs were performed at 25°C on a NanoTemper Monolith NT.115, with an excitation power of 60% and medium MST power. Data were analyzed using the MO.Affinity Analysis v2.3 software, and affinity constants were calculated using the Kd model.

SEC-MALS = target: the molecule itself; experiment: SEC-MALS
HilE [3] = target: T4, HilE (Salmonella enterica subsp. enterica …); experiment: MST; 100 uM C26
T4 chain: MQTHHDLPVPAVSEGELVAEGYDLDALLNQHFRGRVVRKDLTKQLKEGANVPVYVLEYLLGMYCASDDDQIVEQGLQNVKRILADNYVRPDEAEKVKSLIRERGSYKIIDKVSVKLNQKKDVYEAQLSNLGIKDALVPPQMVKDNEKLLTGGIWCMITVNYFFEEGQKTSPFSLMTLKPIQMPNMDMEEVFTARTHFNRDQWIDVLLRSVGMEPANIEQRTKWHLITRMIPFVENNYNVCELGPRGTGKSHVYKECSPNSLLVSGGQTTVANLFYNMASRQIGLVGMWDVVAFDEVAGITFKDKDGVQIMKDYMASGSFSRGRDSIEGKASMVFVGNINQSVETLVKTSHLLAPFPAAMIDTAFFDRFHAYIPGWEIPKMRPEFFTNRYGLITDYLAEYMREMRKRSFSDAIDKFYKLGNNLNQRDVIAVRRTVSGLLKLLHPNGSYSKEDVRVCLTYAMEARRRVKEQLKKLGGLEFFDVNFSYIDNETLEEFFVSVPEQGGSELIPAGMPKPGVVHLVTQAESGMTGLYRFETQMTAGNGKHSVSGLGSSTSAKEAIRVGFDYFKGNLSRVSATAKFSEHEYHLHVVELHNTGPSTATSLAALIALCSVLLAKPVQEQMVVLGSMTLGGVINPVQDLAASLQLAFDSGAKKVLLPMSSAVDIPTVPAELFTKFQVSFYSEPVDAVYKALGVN

HilE [4] = target: T4, HilE; experiment: MST; 1% DMSO

Row | Molecule | IC50 (HilD [1]) [µM] | TC50 cytotoxicity (HeLa cells) [µM] | Kd (HilD [2]) [µM] | further results
1 | C[C@H](CCC(=O)O)[C@H]1CC[C@H]2[C@@H]3[C@H](O)C[C@@H]4C[C@H](O)CC[C@]4(C)[C@H]3CC[C@]12C [CDCA, chenodeoxycholic acid, reference compound] | – | – | – | activity in PhilA activation assay, in words (HilD [1]): No activity
2 | CN(CC(=O)NCc1ccccc1)Cc1ccc(Br)s1 [SW-C103] | 34.4 | > 100 | 28.8 | –
3 | CN(CC(=O)NCc1ccc2c(c1)OCO2)Cc1ccc(Br)cc1 [SW-C116] | 68.3 | > 100 | > 100 | –
4 | Cc1ccc(CN(C)CC(=O)NCc2ccc3c(c2)OCO3)s1 [SW-C153] | 63.1 | > 100 | 8.8 | –
5 | CN(CC(=O)NCc1ccc2c(c1)OCO2)Cc1ccccc1Br [SW-C165, N-(benzo[d][1,3]dioxol-5-ylmethyl)-2-[(2-bromobenzyl)(methyl)amino]acetamide] | > 100 | > 100 | > 100 | –
6 | CN(CC(=O)NCc1ccc(O)c(O)c1)Cc1ccc(Br)s1 [SW-C170, 2-{[(5-Bromothiophen-2-yl)methyl](methyl)amino}-N-(3,4-dihydroxybenzyl)acetamide] | > 100 | > 100 | > 100 | activity in PhilA activation assay, in words (HilD [1]): complete loss of activity
7 | CN(CC(=O)NCc1ccc2c(c1)OC(F)(F)O2)Cc1ccc(Br)s1 [SW-C182, 2-{[(5-Bromothiophen-2-yl)methyl](methyl)amino}-N-[(2,2-difluorobenzo[d][1,3]dioxol-5-yl)methyl]acetamide] | 4.9 | 49.9 | 2.7 | –
8 | CN(CC(=O)NCc1ccc(Cl)cc1)Cc1ccc(Br)s1 [SW-C202, 2-{[(5-Bromothiophen-2-yl)methyl](methyl)amino}-N-(4-chlorobenzyl)acetamide] | 3.9 | 87.3 | 4.1 | –
9 | CN(CC(=O)NCc1ccc2c(c1)OCO2)Cc1ccc(Br)o1 [SW-C210, N-(benzo[d][1,3]dioxol-5-ylmethyl)-2-{[(5-bromofuran-2-yl)methyl](methyl)amino}acetamide] | > 100 | > 100 | > 100 | –
10 | CN(CC(=O)NCc1cc(Cl)cc(Cl)c1)Cc1ccc(Br)s1 [SW-C250, 2-{[(5-Bromothiophen-2-yl)methyl](methyl)amino}-N-(3,5-dichlorobenzyl)acetamide] | 3.2 | > 100 | 1.8 | –
11 | CCCCCCCCCCCCC/C=C\C(=O)O [c2-HDA, cis-2-hexadecenoic acid, reference compound] | 0.21 | – | – | –
12 | CCCCCCCC/C=C\CCCCCCCC(=O)O [oleic acid, reference compound] | 25.1 | – | – | levels of cross-linked HilD dimer (HilD dimer): Decreased levels of the cross-linked HilD dimer; formation of HilD-HilE heterodimers (HilD-HilE heterodimer): disrupted the binding of HilE to HilD
13 | CCCCCC/C=C\CCCCCCCC(=O)O [palmitoleic acid, reference compound] | 25.8 | – | – | –
14 | B1 | – | – | – | stoichiometry N (SEC-MALS): 2; Kd (HilE [3]): 1.71 µM; Kd (HilE [4]): 1.7 µM
